{"source": "patent EP0906100B1", "about": "“USE OF 5-HT 1A? RECEPTOR ANTAGONISTS FOR THE TREATMENT OF URINARY INCONTINENCE” (RECORDATI S.A., priority 1996, dated 1997)", "key": {"[1]": {"test_system": "rhythmic bladder voiding contractions", "experiment": "Volume-induced rhythmic bladder voiding contractions in anaesthetized rats", "assay_type": "in vivo", "settings": "for AMPLITUDE mm Hg before treatment / FREQUENCY No. contr./15 min before treatment: baseline; for AMPLITUDE mm Hg before treatment / AMPLITUDE mm Hg after treatment: animals with frequency reduction <50%; for AMPLITUDE mm Hg before treatment / FREQUENCY No. contr./15 min before treatment / AMPLITUDE mm Hg after treatment / FREQUENCY No. contr./15 min after treatment: mean±S.E.; for BLADDER CONTRACTIONS Disappearance time: duration of bladder quiescence, mean (S.E. in next cell)", "description": "Female Sprague Dawley rats weighing 225-275 g (Crl: CD° BR, Charles River Italia) were used. The animals were housed with free access to food and water and were maintained on a forced 12 h alternating light-dark cycle at 22-24°C for at least one week, except during the experiment. The activity on the rhythmic bladder voiding contractions was evaluated according to the method of Dray (J. Pharmcol. Methods, 13:157, 1985), with some modifications as in Guarneri (Phannacol. Res., 27:173, 1993). […] The catheter was tied in place with a ligature around the external urethral orifice and was connected with conventional pressure transducers (Statham P23 ID/P23 XL). […] The bladder was then filled via the recording catheter by incremental volumes of warm (37°C) saline until reflex bladder voiding contractions occurred (usually 0.8-1.5 ml). Two parameters were recorded from the cystometrogram: the frequency of voiding contractions, calculated by counting the number of peaks/15 min of observation, and the mean amplitude of these contractions (mean height of the peaks in mmHg) in the same time period. For intravenous (i. v. ) injection of bioactive compounds, a PE 50 polyethylene tubing filled with physiological saline was inserted into the jugular vein.\nBioactivity was assessed in individual animals (using 6-10 rats per dose), by recording the number and height of the peaks for 15 min after drug injection and comparing them with those previously recorded for 15 min after the intravenous administration of vehicle alone. […] The statistical significance of changes in frequency and amplitude before and after treatment was assessed by Student's t test for paired data. Changes showing a probability P<0.01 were considered significant.\nAn all-or-none criterion was also used to compare bioactivity in terms of ED50 values. Rats showing a treatment-related change of ≥30% relative to the basal value were considered to be positive. Quantal dose-response curves and ED50 values were evaluated by the method of Bliss (J. Pharm. Pharmacol., 11:192, 1938).\nThe rapid distension of the urinary bladder in urethane-anaesthetized rats produced a series of rhythmic bladder voiding contractions whose characteristics have been described (Maggie et al., Brain Res., 380, 83, 1986; Maggi, et al., J. Pharmacol. Exp. Ther., 230, 500, 1984). The frequency of these contractions is related to the sensory afferent arm of reflex micturition and to the integrity of the micturition centre, while their amplitude is a property of the efferent arm of the reflex (Maggi et al., J. Pharmacol. Meth., 15, 157, 1986; Maggi et al., Brain Res.. 415, 1, 1987; Maggi et al., Naun. Schmied. Arch. Pharmacol., 332, 276, 1986; Maggi et al., J. Urol., 136, 696, 1986)."}, "[2]": {"test_system": "cystometric parameters (bladder volume capacity, micturition pressure)", "experiment": "Cystometric parameters (BVC, MP) in the conscious rat", "assay_type": "in vivo, rats", "settings": "for BVC before treatment / MP before treatment: baseline; for BVC before treatment / MP before treatment / BVC after treatment / MP after treatment: mean±S.E.; for BVC % change / MP % change / BVC after treatment / MP after treatment: 15 min after injection", "description": "Male Sprague Dawley rats (Crl: CD° BR) weighing 250-350 g were used. The animals were housed with free access to food and water and maintained on a forced 12 h alternating light-dark cycle at 22-24°C for at least one week, except during performance of the experiment.\nAn approximately 10 mm long midline incision was made in the shaved and cleaned abdominal wall. The urinary bladder was gently freed from adhering tissues, emptied, and then cannulated, via an incision at the dome, with a polyethylene cannula (Portex PP30), which was permanently sutured with silk thread. The cannula was exteriorized through a subcutaneous tunnel in the retroscapular area, where it was connected with a plastic adapter to avoid the risk of removal by the animal. For intravenous (i.v.) injection of test compounds, a PE 50 polyethylene tubing filled with physiological saline was inserted into the jugular vein and exteriorized in the retroscapular area.\nSince cystometrographic parameters have been reported to be influenced by the time elapsed after catheter implantation […].\nOn the day of the experiment, the rats were placed in Bollman's cages; after a stabilization period of 20 min, the free tip of the bladder catheter was connected through a T-shaped tube to a pressure transducer (Bentley T 800/Marb P 82) and to a peristaltic pump (Gilson minipuls 2) for a continuous infusion, at the constant rate of 0.1 ml/min, of saline solution into the urinary bladder. The intraluminal pressure signal during infusion was continuously recorded on a polygraph (Battaglia Rangoni KO 380 with ADC1/T amplifier). Two urodynamic parameters were evaluated: bladder volume capacity (BVC) and micturition pressure (MP). BVC (in ml) is defined as the minimum volume infused after which detrusor contraction (followed by micturition) occurs. MP (in mmHg) is defined as the maximal intravesical pressure induced by the contraction of detrusor during micturition. Basal BVC and MP values were calculated as the means of the first two recorded cystometrograms. At this point, the infusion was interrupted and the test compounds were administered. Fifteen minutes after intravenous administration, or one hour after oral drug administration, two additional cystometrograms were recorded in each animal and the mean values of the two cystometrographic parameters were calculated.\nThe statistical significance of the differences in urodynamic parameter values was evaluated by Student's t test for paired data. Only changes showing a probability P<0.01 were considered to be significant."}}}
{"smiles": "Cc1c(-c2ccccc2)oc2c(C(=O)OCCN3CCCCC3)cccc2c1=O", "note": "[Flavoxate, flavoxate]", "values": [{"measurement": "AMPLITUDE mm Hg before treatment", "setting": "[1]; 300 µg/kg i.v. group", "result": "25.9±1.3", "unit": "mm Hg"}, {"measurement": "FREQUENCY No. contr./15 min before treatment", "setting": "[1]; 300 µg/kg i.v. group", "result": "9.2±1.2", "unit": "No. contr./15 min"}, {"measurement": "AMPLITUDE mm Hg after treatment", "setting": "[1]; 300 µg/kg i.v.", "result": "24.1±1.8", "unit": "mm Hg"}, {"measurement": "BLADDER CONTRACTIONS Disappearance time", "setting": "[1]; 300 µg/kg i.v.", "result": 1.70, "unit": "min"}, {"measurement": "FREQUENCY No. contr./15 min after treatment", "setting": "[1]; 300 µg/kg i.v.", "result": "8.8±1.7", "unit": "No. contr./15 min"}, {"measurement": "AMPLITUDE mm Hg before treatment", "setting": "[1]; 1000 µg/kg i.v. group", "result": "26.1±2.3", "unit": "mm Hg"}, {"measurement": "FREQUENCY No. contr./15 min before treatment", "setting": "[1]; 1000 µg/kg i.v. group", "result": "10.1±0.7", "unit": "No. contr./15 min"}, {"measurement": "AMPLITUDE mm Hg after treatment", "setting": "[1]; 1000 µg/kg i.v.", "result": "25.0±2.2", "unit": "mm Hg"}, {"measurement": "BLADDER CONTRACTIONS Disappearance time", "setting": "[1]; 1000 µg/kg i.v.", "result": 3.04, "unit": "min"}, {"measurement": "FREQUENCY No. contr./15 min after treatment", "setting": "[1]; 1000 µg/kg i.v.", "result": "8.6±0.9", "unit": "No. contr./15 min"}, {"measurement": "AMPLITUDE mm Hg before treatment", "setting": "[1]; 3000 µg/kg i.v. group", "result": "18.9±0.9", "unit": "mm Hg"}, {"measurement": "FREQUENCY No. contr./15 min before treatment", "setting": "[1]; 3000 µg/kg i.v. group", "result": "10.7±0.7", "unit": "No. contr./15 min"}, {"measurement": "AMPLITUDE mm Hg after treatment", "setting": "[1]; 3000 µg/kg i.v.", "result": "16.6±1.2", "unit": "mm Hg"}, {"measurement": "BLADDER CONTRACTIONS Disappearance time", "setting": "[1]; 3000 µg/kg i.v.", "result": 5.30, "unit": "min"}, {"measurement": "FREQUENCY No. contr./15 min after treatment", "setting": "[1]; 3000 µg/kg i.v.", "result": "6.5±0.7", "unit": "No. contr./15 min"}, {"measurement": "AMPLITUDE mm Hg before treatment", "setting": "[1]; 10000 µg/kg i.v. group", "result": "19.9±1.6", "unit": "mm Hg"}, {"measurement": "FREQUENCY No. contr./15 min before treatment", "setting": "[1]; 10000 µg/kg i.v. group", "result": "11.3±0.8", "unit": "No. contr./15 min"}, {"measurement": "AMPLITUDE mm Hg after treatment", "setting": "[1]; 10000 µg/kg i.v.", "result": "19.2±1.5", "unit": "mm Hg"}, {"measurement": "BLADDER CONTRACTIONS Disappearance time", "setting": "[1]; 10000 µg/kg i.v.", "result": 8.25, "unit": "min"}, {"measurement": "BLADDER CONTRACTIONS Disappearance time", "setting": "[1]; 10000 µg/kg i.v., listed as flavoxate", "result": "8.25 ± 1.90", "unit": "min"}, {"measurement": "FREQUENCY No. contr./15 min after treatment", "setting": "[1]; 10000 µg/kg i.v.", "result": "5.5±0.6", "unit": "No. contr./15 min"}, {"measurement": "ED (10 min disappearance of contractions)", "setting": "[1]; Rattus norvegicus, iv, 10 min, extrapolated dose inducing 10 min of disappearance of the contractions, linear regression", "result": "> 10", "unit": "mg/kg"}, {"measurement": "ED50", "setting": "[1]; Rattus norvegicus, iv, read-out: ED50 FREQUENCY (and 95% confidence limits), i.v., quantal criterion (change ≥30% relative to basal value)", "result": 2.65, "unit": "mg/kg"}, {"measurement": "BVC before treatment", "setting": "[2]; 300 µg/kg i.v. group", "result": "0.76 ± 0.11", "unit": "mL"}, {"measurement": "MP before treatment", "setting": "[2]; 300 µg/kg i.v. group", "result": "89.2±10.7", "unit": "mmHg"}, {"measurement": "BVC % change", "setting": "[2]; 300 µg/kg i.v.", "result": "+14%"}, {"measurement": "MP % change", "setting": "[2]; 300 µg/kg i.v.", "result": "+7%"}, {"measurement": "BVC after treatment", "setting": "[2]; 300 µg/kg i.v.", "result": "0.87 ± 0.11", "unit": "mL"}, {"measurement": "MP after treatment", "setting": "[2]; 300 µg/kg i.v.", "result": "95.0±10.9", "unit": "mmHg"}, {"measurement": "BVC before treatment", "setting": "[2]; 1000 µg/kg i.v. group", "result": "0.88 ± 0.15", "unit": "mL"}, {"measurement": "MP before treatment", "setting": "[2]; 1000 µg/kg i.v. group", "result": "90.4±10.7", "unit": "mmHg"}, {"measurement": "BVC % change", "setting": "[2]; 1000 µg/kg i.v.", "result": "+26%"}, {"measurement": "MP % change", "setting": "[2]; 1000 µg/kg i.v.", "result": -12, "unit": "%"}, {"measurement": "BVC after treatment", "setting": "[2]; 1000 µg/kg i.v.", "result": "1.11 ± 0.16", "unit": "mL"}, {"measurement": "MP after treatment", "setting": "[2]; 1000 µg/kg i.v.", "result": "80.1±11.1", "unit": "mmHg"}, {"measurement": "BVC before treatment", "setting": "[2]; 3000 µg/kg i.v. group", "result": "0.77 ± 0.08", "unit": "mL"}, {"measurement": "MP before treatment", "setting": "[2]; 3000 µg/kg i.v. group", "result": "72.6±9.3", "unit": "mmHg"}, {"measurement": "BVC % change", "setting": "[2]; 3000 µg/kg i.v.", "result": "+39%"}, {"measurement": "MP % change", "setting": "[2]; 3000 µg/kg i.v.", "result": "+4%"}, {"measurement": "BVC after treatment", "setting": "[2]; 3000 µg/kg i.v.", "result": "1.07 ± 0.12", "unit": "mL"}, {"measurement": "MP after treatment", "setting": "[2]; 3000 µg/kg i.v.", "result": "75.2±9.5", "unit": "mmHg"}, {"measurement": "effect on MP (in words)", "setting": "[2]; conscious rats, i.v., NAN-190 up to the highest administrable dose of 300 µg/kg", "result": "inactive"}]}
